Source: EP1301165B1, “USE OF AN ALLOMELANIN FOR THE TREATMENT OF INFLAMMATION OR IRRITANCY CAUSED BY DHA AND/OR A SURFACTANT” (Croda Chemicals International Limited, priority 2000, dated 2002)

Tests used:
[1] = Fragrance stabilisation test (eau de toilette, daily 37°C / 4°C / sunlight cycle for 7 days, aroma assessed); conditions: daily cycle repeated for 7 days
Description: To test the stability of a fragrance in the form of an eau de toilette ("EDT"), we use aliquots of the EDT to which are added two or more concentrations of our melanin ("EDT'') and, as reference examples, two concentrations of BHT (butyrated hydroxytoluene, a known antioxidant used in cosmetics). A further aliquot of the original eau de toilette is used as a control. Test samples are made in clear glass bottles that are half filled with the test samples. This is to allow some penetration of UV light and sufficient gas in the headspace to allow oxidative deterioration of the fragrance to occur.
Samples are stored at 37°C overnight, then are cooled to 4°C and then allowed to stand in direct sunlight, for the rest of the day, being returned to 37°C. In addition bottles are opened before and after the 37°C incubation. This daily cycle is repeated for 7 days and the aromas of each assessed.

Water solubility = type: physicochemical
Text: In contrast, conventional melanins are virtually insoluble. Our melanin derived from caffeic acid has a solubility of about 220g/l. Since caffeic acid has a solubility of below 1g/l, and polymerisation generally leads to a reduction in solubility, this is quite remarkable.

skin = assay: Surfactant sensitivity: skin irritation by 24 hour SLES patch, skin colour by Chroma Meter; type: in vivo, human
Description: The effectiveness of our melanin in reducing skin irritation due to a surfactant was investigated. Two human subjects were used. The effect of applying to skin for 24 hours a patch containing a 70% solution of sodium lauryl ether sulphate ('SLES') was compared with the effect of applying an identical patch also containing 0.3% of our melanin ('M'). The colour of the treated skin was monitored for several days using a Chroma Meter. The changes in degrees of redness are tabulated below.

In the case of `Cc1cc(C(C)(C)C)c(O)c(C(C)(C)C)c1` [BHT, butyrated hydroxytoluene], the “fragrance stability (aroma)” value [1] was “markedly superior to the control”.

For `O=C(O)/C=C/c1ccc(O)c(O)c1` [caffeic acid], the solubility (Water solubility) was < 1000 µg/mL.

In the case of sodium lauryl ether sulphate [SLES], the “Redness Change” value (skin; Subject 1, Day 1, patch applied for 24 hours) was “+6.3”, the “Redness Change” value (skin; Subject 1, Day 2) was “+4.2” and the “Redness Change” value (skin; Subject 1, Day 6) was “+0.3”. For the same compound, the “Redness Change” value (skin; Subject 2, Day 1, patch applied for 24 hours) was “+3.5”, the “Redness Change” value (skin; Subject 2, Day 2) was “+2.3” and the “Redness Change” value (skin; Subject 2, Day 7) was “+0.6”.
